Data from patent publication US7420043B2, “Reagents for detecting efavirenz” (priority 2003, dated 2008).
Like-named read-outs stand apart in the source and are kept apart here.

Experiments:
[1] = test system: monoclonal antibody EFA 97.1; experiment: Cross-reactivity assay (competitive ELISA, ED50 ratio); assay type: binding, mouse; details: ED50 of efavirenz divided by ED50 of the drug, times 100
Source text: Supernatants were subjected to serial dilutions and retested in the ELISA screen above omitting the competitive inhibition with free drug. The dilution providing for approximately a 50% reduction from the maximum OD was chosen for proceeding to cross-reactivity testing. This comprised repeating the preceding assay with the antibody at the chosen dilution and in the presence of varying concentrations of different drugs. FIG. 8 presents the results of such a determination.

HIV = details: cited from earlier work
[2] = cited from earlier work
[3] = Physician's Desk Reference; cited from earlier work

SMILES | % Cross-reactivity [1] | further results
Cc1cn([C@H]2C=C[C@@H](CO)O2)c(=O)[nH]c1=O [2′,3′-didehydro-3′-deoxythymidine] | 0% | –
Cc1cn([C@H]2C[C@H](N=[N+]=[N-])[C@@H](CO)O2)c(=O)[nH]c1=O [3′-azido-3′-deoxythymidine] | 0% | –
CC(C)CN(C[C@@H](O)[C@H](Cc1ccccc1)NC(=O)O[C@H]1CCOC1)S(=O)(=O)c1ccc(N)cc1 [amprenavir] | 0% | –
COC(=O)N[C@H](C(=O)N[C@@H](Cc1ccccc1)[C@@H](O)CN(Cc1ccc(-c2ccccn2)cc1)NC(=O)[C@@H](NC(=O)OC)C(C)(C)C)C(C)(C)C [atazanavir] | 0% | –
CC(C)Nc1cccnc1N1CCN(C(=O)c2cc3cc(NS(C)(=O)=O)ccc3[nH]2)CC1 [delaviridine] | 0% | –
O=C1Nc2ccc(Cl)cc2[C@@](C#CC2CC2)(C(F)(F)F)O1 [efavirenz] | 100% | virological failure, % of patients (HIV; patients with low plasma levels of efavirenz, <1000 μg/L, 85 total patients): 50%; virological failure, % of patients (HIV; plasma levels 1000-4000 μg/L or more than 4000 μg/L): 18-22%; CNS toxicity frequency, high versus mid plasma levels ([2]; >4000 μg/L compared with 1000-4000 μg/L): approximately three times more frequent; patients discontinuing therapy because of severity or persistence of CNS side effects ([2]; patients receiving efavirenz): about 4%; patients reporting CNS side effects (dizziness, hallucinations, nightmares, insomnia) ([2]; patients receiving efavirenz): 20-40%; peak levels [3]: 12.9 µM
CC(C)(C)NC(=O)[C@@H]1CN(Cc2cccnc2)CCN1C[C@@H](O)C[C@@H](Cc1ccccc1)C(=O)N[C@H]1c2ccccc2C[C@H]1O [indinavir] | 0% | –
Cc1cccc(C)c1OCC(=O)N[C@@H](Cc1ccccc1)[C@@H](O)C[C@H](Cc1ccccc1)NC(=O)[C@H](C(C)C)N1CCCNC1=O [lopinavir] | 0% | –
Cc1c(O)cccc1C(=O)N[C@@H](CSc1ccccc1)[C@H](O)CN1C[C@H]2CCCC[C@H]2C[C@H]1C(=O)NC(C)(C)C [nelfinavir] | 0% | –
Cc1ccnc2c1NC(=O)c1cccnc1N2C1CC1 [nevirapine] | 0% | –
CC(C)c1nc(CN(C)C(=O)N[C@H](C(=O)N[C@@H](Cc2ccccc2)C[C@H](O)[C@H](Cc2ccccc2)NC(=O)OCc2cncs2)C(C)C)cs1 [ritonavir] | 0% | –
CC(C)(C)NC(=O)[C@@H]1C[C@@H]2CCCC[C@@H]2CN1C[C@@H](O)[C@H](Cc1ccccc1)NC(=O)[C@H](CC(N)=O)NC(=O)c1ccc2ccccc2n1 [saquinavir] | 0% | –
